For one series, the target named is T1, ATP-dependent translocase ABCB1 (Homo sapiens, UniProt P08183). Briefly: TP_TRANSPORTER: transepithelial transport (basal to apical) in MDR1-expressing LLC-PK1 cells. It is filed as functional, cell-based. The following applies: pig.
T1 sequence (P08183 whole entry): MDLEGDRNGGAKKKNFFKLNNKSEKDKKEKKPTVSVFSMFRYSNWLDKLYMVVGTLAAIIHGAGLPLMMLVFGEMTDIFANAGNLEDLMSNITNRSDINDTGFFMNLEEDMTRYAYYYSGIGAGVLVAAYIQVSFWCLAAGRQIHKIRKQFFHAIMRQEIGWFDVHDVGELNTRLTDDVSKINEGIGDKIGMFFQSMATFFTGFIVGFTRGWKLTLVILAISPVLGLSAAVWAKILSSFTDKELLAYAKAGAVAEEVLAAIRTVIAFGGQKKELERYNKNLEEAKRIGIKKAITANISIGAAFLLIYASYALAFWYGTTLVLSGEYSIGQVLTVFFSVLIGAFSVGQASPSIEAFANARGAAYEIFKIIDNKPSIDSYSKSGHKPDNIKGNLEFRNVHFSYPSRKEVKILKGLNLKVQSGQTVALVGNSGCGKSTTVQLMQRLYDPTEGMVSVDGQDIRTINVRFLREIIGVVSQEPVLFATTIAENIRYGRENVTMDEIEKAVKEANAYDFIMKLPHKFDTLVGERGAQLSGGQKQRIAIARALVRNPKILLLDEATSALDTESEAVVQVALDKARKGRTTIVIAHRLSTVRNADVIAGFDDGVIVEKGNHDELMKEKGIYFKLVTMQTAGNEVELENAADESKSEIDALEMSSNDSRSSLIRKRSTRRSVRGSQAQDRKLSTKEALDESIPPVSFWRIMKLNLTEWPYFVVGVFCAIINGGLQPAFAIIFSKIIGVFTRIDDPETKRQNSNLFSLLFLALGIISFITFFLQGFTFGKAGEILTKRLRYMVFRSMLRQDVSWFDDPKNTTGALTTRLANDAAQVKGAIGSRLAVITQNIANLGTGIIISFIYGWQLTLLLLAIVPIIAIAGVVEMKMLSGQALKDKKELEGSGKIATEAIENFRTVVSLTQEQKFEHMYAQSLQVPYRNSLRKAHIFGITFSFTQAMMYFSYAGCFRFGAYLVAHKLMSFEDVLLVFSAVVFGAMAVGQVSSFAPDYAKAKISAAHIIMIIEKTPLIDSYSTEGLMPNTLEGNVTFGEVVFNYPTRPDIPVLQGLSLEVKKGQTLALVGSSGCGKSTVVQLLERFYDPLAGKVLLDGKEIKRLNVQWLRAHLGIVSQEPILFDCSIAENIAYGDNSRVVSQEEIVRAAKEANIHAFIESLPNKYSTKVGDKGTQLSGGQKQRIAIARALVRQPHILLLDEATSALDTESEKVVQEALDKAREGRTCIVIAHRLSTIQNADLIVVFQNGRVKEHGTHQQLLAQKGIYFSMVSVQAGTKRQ
As to `CNCCCC(C#N)(c1ccc(OC)c(OC)c1)C(C)C` (stereo unspecified), the Activity result was “substrate [+]”.

In the case of `COc1ccc([C@@](C#N)(CCCN)C(C)C)cc1OC`, the Activity entry was “substrate [+]”.

Regarding `COc1ccc(CCNCCCC(C#N)(c2ccc(OC)c(OC)c2)C(C)C)cc1OC` (stereo unspecified) [NORVERAPAMIL], the Activity entry was “substrate [+]”.

`COc1ccc(CCN(C)CCCC(C#N)(c2ccc(OC)c(OC)c2)C(C)C)cc1OC` (stereo unspecified) [VERAPAMIL]: the Activity result was “substrate [+]”.

Another series addresses T1, ATP-dependent translocase ABCB1. Briefly: TP_TRANSPORTER: inhibition of Digoxin transepithelial transport (basal to apical) (Digoxin: 5 uM) in Caco-2 cells. It is filed as functional, cell-based.
Details: not given
(In general: Caco-2 cells form a polarised layer with tight junctions and transporters.)
What is called IC50 is the concentration needed to halve the response being measured. Read a high IC50 as lower potency. Molecule `COc1ccc([C@@](C#N)(CCCN(C)CCc2ccc(OC)c(OC)c2)C(C)C)cc1O` came in with an IC50 of 1600 nM.

`COc1ccc(CCNCCCC(C#N)(c2ccc(OC)c(OC)c2)C(C)C)cc1OC` (stereo unspecified) [NORVERAPAMIL] yielded an IC50 of 300 nM.

The values are drawn from ChEMBL document CHEMBL2074351, “Characterization of the major metabolites of verapamil as substrates and inhibitors of P-glycoprotein” (J Pharmacol Exp Ther, 2000).
